Data on 7 molecules can be found in PMC10529643, “Discovery of ACE Inhibitory Peptides Derived from Green Coffee Using In Silico and In Vitro Methods” (Foods, 2023).

One data set concerns ACE. The settings on record: cited from earlier work.
In another data set the test system is pepsin. Put plainly: In vitro gastrointestinal digestion simulation, pepsin step, MS analysis. The class given is in vitro ADME. The settings on record: 1.0 mg/mL peptide, pepsin 1% E/S w/w, pH 2.0, 37 °C, 2 h; Q-TOF MS read-out. As for the experimental part:
(§1) In vitro gastrointestinal digestion simulation was performed according to the method described by Fan et al. with minor modifications. Two peptides (CP2, CP3) were dissolved in ultrapure water at 1.0 mg/mL, respectively. The solutions were adjusted to pH 2.0 with […]. Then, pepsin (1% E/S, w/w) was added to peptide solutions and the mixtures were incubated at 37 °C for 2 h. Half of the two digests were terminated in digestion by increasing the temperature to 90 °C. After the other half were adjusted to pH 7.5 with […], pancreatin (1% E/S, w/w) was added and the systems were digested at 37 °C for 2 h. The reactions were then stopped by boiling for 10 min. Subsequently, solvents were centrifuged at 10,000 rpm for 10 min. The supernatants were lyophilized to collect and analyzed using Agilent 6545 series Q-TOF mass spectrometer (Agilent, Waldbronn, Germany). The ACE inhibitory activity of the digested peptide solutions was determined under the same conditions.

A further data set has as its system pepsin-pancreatin. Description: In vitro gastrointestinal digestion simulation, pepsin then pancreatin, MS analysis. The class given is in vitro ADME. The note with it: pepsin pH 2.0, 37 °C, 2 h then pancreatin 1% E/S w/w, pH 7.5, 37 °C, Q-TOF MS read-out. As for the experimental part: as §1
Data set [1] deals with Angiotensin converting enzyme (ACE). Put plainly: In vitro ACE inhibitory activity assay with FAPGG substrate. The class given is biochemical. The note with it: captopril at 0.1 μM, 37 °C, 30 min, absorbance 340 nm. The protocol: The peptides predicted with potential antihypertensive capacity were synthesized by GenScript. The ACE inhibitory capacity of hydrolysates and selected peptides were measured as previously described with minor modifications; 400 μL of samples (hydrolysates, synthesized peptides dissolved in the HEPES-NaCl buffer at a concentration of 1.25 mg/mL, 125 μM separately) were mixed with 100 μL of ACE (0.2 U/mL). After incubation of the mixture at 37 °C for 10 min, 500 μL of FAPGG was added and the absorbance value at 340 nm was detected instantly by a FlexStation 3 and recorded as A0 min. After being kept at 37 °C for 30 min, the absorbance value at 340 nm was detected again and recorded: ACE inhibitory rate%=∆Acontrol−∆Asample/∆Acontrol×100% where A0 min is the initial absorbance at 340 nm; A30 min is the absorbance at 340 nm after keeping at 37 °C for 30 min, and ΔA is the reduction in the absorbance: A0 min–A30 min.

Where two headings read alike, the source gives them in different places. Ends that are not written are not given here.

In the case of QLDL, in the data set on ACE (from the mycelia of Ganoderma Lucidum), the ACE inhibition pattern result is “noncompetitive”. As to QAGLSPVR, the ACE inhibition pattern entry in the data set on ACE (from tilapia skin gelatin) is on record as “noncompetitive”. As for ITPPVMLPP [CP3], the “stability against pepsin digestion” value in the data set with pepsin is “Only a small amount of CP3 was degraded”. In the data set with pepsin-pancreatin, the “stability against successive pepsin and pancreatin digestion” value is “Great changes in the MS analysis”. On to VGLPPNSR, for which the ACE inhibition pattern result in the data set on ACE (from tilapia skin gelatin) was “noncompetitive”.

As to IIPNEVY [CP2], the “stability against pepsin digestion” value in the data set with pepsin was “well resistant in gastric digestion”. In addition, the “stability against successive pepsin and pancreatin digestion” value in the data set on pepsin-pancreatin was “new peptide sequences were detected”. For the molecule `C[C@H](CS)C(=O)N1CCC[C@H]1C(=O)O` [Captopril, captopril], the “ACE inhibition (%)” value in data set [1] was 97.5%. Take VFDGVLRPGQ: the ACE inhibition pattern entry in the data set with ACE (from rice bran protein) is “noncompetitive”.
